Data published in patent publication US20090263339A1, “AGENT FOR EXTERNAL APPLICATION TO THE SKIN” (KABUSHIKI KAISHA HAYASHIBARA SEIBUTSU KAGAKU KENKY, priority 2005, published 2009).
In brackets after ≈: the same amount, converted by molar mass. Where two headings read alike, the source gives them in different places.

What was measured:
[1] = tested on: B16 melanoma cells of mouse; assay: Effect of indigo-plant extract and other skin-whitening ingredient on melanin production (Experiment 2); type: cell-based; parameters: Efficacy with 1.25% of indigo-plant extract: key: −: Not changed; ±: Slightly suppressing blackening; +: Moderately suppressing blackening; ++: Significantly suppressing blackening; +++: Completely suppressing blackening; conditions: for Efficacy with 1.25% of indigo-plant extract: 72 hours; for Efficacy without indigo-plant extract: cultured 72 hours; as to Efficacy without indigo-plant extract: key: −: Not changed; ±: Slightly suppressing blackening; +: Moderately suppressing blackening; ++: Significantly suppressing blackening; +++: Completely suppressing blackening
Method: The criterion for evaluation of blackening:
The following experiment was carried out to investigate the skin-whitening effect of indigo-plant extract and other skin-whitening ingredient. After B16 melanoma cells of mouse were cultured for 24 hours, the test samples were added to the medium alone or along with 1.25% of the indigo-plant extract to give the concentrations described in Table 2, the cells were cultured for additional 72 hours. After the number of the living cells was counted, a color of the cells packed in capillary was observed. The effect was evaluated on the same criterion in Experiment 1. When the experiment was conducted using 1.25% of the indigo-plant extract, the effect was evaluated as “+”.

A. actinomycetemcomitans [2] = assay: MIC to dental bacteria, agar plate dilution; type: cell-based, Actinobacillus actinomycetemcomitans; conditions: Aggregatibacter actinomycetemcomitans
Method: (§1) The following experiment was carried out to investigate the effect of indigo-plant extract on human dental bacteria. Two parts by weight of shredded whole indigo plant was added with three parts by weight of purified water and stirred at a room temperature for 10 minutes to prepare the extract. The supernatant obtained by centrifugation was autoclaved at 120° C. for 20 minutes. After autoclaved, the supernatant obtained by centrifugation was filtrated to give an indigo-plant extract (solid content of 1.41%). The minimum inhibitory concentration (hereinafter, occasionally abbreviated as “MIC”) of the extract to dental bacteria (periodontal disease bacteria and caries bacteria) was determined. Also MIC of tryptanthrin, gallic acid and caffeic acid, which are found to be contained in the indigo-plant extract to dental bacteria. The measurement of MIC was conducted by the method described below.
(§2) MIC of the indigo-plant extract, tirptanthrin, gallic acid and caffeic acid was determined according to the standard method of Japanese Society of Chemotherapy (q.v. “Saikin-Shinkin Kensa” (Second edition), issued by Japan Public Health Association, pp. 524-529 (1982)). For periodontal disease bacteria, Prophyromonas gingivalis JCM8525, JCM12257 and ATCC33277, Actinobacillus actinomycetemcomitans (hereinafter, occasionally abbreviated as “A. actinomycetemcomitans”) JCM2434 and JCM8577, Prevotella intermedia (hereinafter, occasionally abbreviated as “P. intermedia”) JCM7365, and Campylobacter rectus (hereinafter, occasionally abbreviated as “C. rectus”) JCM6301 were used. For caries bacteria, Streptococcus mutans OMZ-175, OMZ-176, OMZ-65, OMZ-61, B-13D and Ingbritt, and Streptococcus sorbrinus (hereinafter, occasionally abbreviated as “S. sorbrinus”) 6715 were used. These bacteria were anaerobically cultured in Brain Heart Infusion medium (commercialized by Difco Laboratories Inc., hereinafter abbreviated as “BHI”) at 37° C. for 48 hours for periodontal disease bacteria or for 18 to 24 hours for caries bacteria. The broth of periodontal disease bacteria and caries bacteria was diluted to give the bacteria suspensions containing 10^8 cells/ml and 10^6 cells/ml, respectively. Five μl of any one of these suspension was inoculated on BHI agar plate containing various concentration of the indigo-plant extract, tryptanthrin, gallic acid or caffeic acid and anaerobically cultured at 37° C. for 24 hours.

P. intermedia = assay: MIC to dental bacteria, agar plate dilution; type: cell-based; conditions: Prevotella intermedia, read-out: Minimum Inhibitory Concentration (MIC)
Method: as §1, §2

S. mutans = assay: MIC to dental bacteria, agar plate dilution; type: cell-based; conditions: Streptococcus mutans
Method: as §1, §2

C. rectus = assay: MIC to dental bacteria, agar plate dilution; type: cell-based; conditions: Campylobacter rectus, read-out: Minimum Inhibitory Concentration (MIC)
Method: as §1, §2

[3] = tested on: dental bacteria (periodontal disease bacteria and caries bacteria); assay: MIC to dental bacteria, summary over all strains; type: cell-based
Method: as §1
MIC of the indigo-plant extract, tirptanthrin, gallic acid and caffeic acid was determined according to the standard method of Japanese Society of Chemotherapy (q.v. “Saikin-Shinkin Kensa” (Second edition), issued by Japan Public Health Association, pp. 524-529 (1982)). […]

S. sobrinus = assay: MIC to dental bacteria, agar plate dilution; type: cell-based, Streptococcus sorbrinus; conditions: Streptococcus sobrinus, read-out: Minimum Inhibitory Concentration (MIC)
Method: as §1
MIC of the indigo-plant extract, tirptanthrin, gallic acid and caffeic acid was determined according to the standard method of Japanese Society of Chemotherapy (q.v. “Saikin-Shinkin Kensa” (Second edition), issued by Japan Public Health Association, pp. 524-529 (1982)). For periodontal disease bacteria, Prophyromonas gingivalis JCM8525, JCM12257 and ATCC33277, Actinobacillus actinomycetemcomitans (hereinafter, occasionally abbreviated as “A. actinomycetemcomitans”) JCM2434 and JCM8577, Prevotella intermedia (hereinafter, occasionally abbreviated as “P. intermedia”) JCM7365, and Campylobacter rectus (hereinafter, occasionally abbreviated as “C. rectus”) JCM6301 were used. For caries bacteria, Streptococcus mutans OMZ-175, OMZ-176, OMZ-65, OMZ-61, B-13D and Ingbritt, and Streptococcus sorbrinus (hereinafter, occasionally abbreviated as “S. sorbrinus”) 6715 were used. These bacteria were anaerobically cultured in Brain Heart Infusion medium (commercialized by Difco Laboratories Inc., hereinafter abbreviated as “BHI”) at 37° C. for 48 hours for periodontal disease bacteria or for 18 to 24 hours for caries bacteria. […]

A. actinomycetemcomitans [4] = assay: MIC to dental bacteria, agar plate dilution; type: cell-based, Actinobacillus actinomycetemcomitans; conditions: Aggregatibacter actinomycetemcomitans; remark: listed apart in the source
[5] = tested on: B16 melanoma cells of mouse; assay: Effect of polygonaceous plant extracts on melanin production, blackening of cells (Experiment 1); type: cell-based; as to Efficacy (suppression of blackening of cells): key: −: Not changed; ±: Slightly suppressing blackening; +: Moderately suppressing blackening; ++: Significantly suppressing blackening; +++: Completely suppressing blackening
Method: The following experiment was carried out to investigate the effect of extract of polygonaceous plants on melanin production. After 2.2×10^5 of B16 melanoma cells of mouse were cultured by conventional method for 24 hours, the medium was added with indigo-plant extract to give a concentration of 1.25% or 2.5%, then they were cultured for additional 72 hours. After the number of the living cells was counted, color of the cells packed in capillary was observed. Using a medium added with any one of the extract of Japanese knotweed, buckwheat and knotgrass prepared by the same method of Example 1 described later to give a concentration of 2.5%, or added with koji acid to give a concentration of 2.5 mM as control, the B16 melanoma cells were cultured by the same manner as using indigo-plant extract. Then the colors of the cells were observed by the same manner as using indigo-plant extract. The degree of blackening of B16 melanoma cells was evaluated by the criterion described below.

B16 melanoma cells = assay: Cytotoxicity to B16 melanoma cells; type: cell-based, mouse; conditions: 0.5 μg/ml
[6] = content 3.0% together with 1.25% indigo-plant extract
[7] = strain JMC2434, read-out: Minimum Inhibitory Concentration (MIC)
[8] = strain JMC8577, read-out: Minimum Inhibitory Concentration (MIC)
[9] = strain B-13D, read-out: Minimum Inhibitory Concentration (MIC)
[10] = strain Ingbritt, read-out: Minimum Inhibitory Concentration (MIC)
[11] = strain OMZ-61, read-out: Minimum Inhibitory Concentration (MIC)
[12] = strain OMZ-65, read-out: Minimum Inhibitory Concentration (MIC)
[13] = strain OMZ-175, read-out: Minimum Inhibitory Concentration (MIC)
[14] = strain OMZ-176, read-out: Minimum Inhibitory Concentration (MIC)
[15] = strain JMC8525, read-out: Minimum Inhibitory Concentration (MIC)
[16] = strain JMC12257, read-out: Minimum Inhibitory Concentration (MIC)
[17] = strain JMC33277, read-out: Minimum Inhibitory Concentration (MIC)
[18] = content 0.5% together with 1.25% indigo-plant extract
[19] = content 1.0% together with 1.25% indigo-plant extract

CCCCc1ccc(O)cc1O [4-n-Butylresorcinol]
Efficacy with 1.25% of indigo-plant extract [1, 6]: +++
Efficacy without indigo-plant extract ([1]; content 3.0%): +

OC[C@H]1O[C@@H](Oc2ccc(O)cc2)[C@H](O)[C@@H](O)[C@@H]1O [Arbutin, hydroquinone-β-D-glucoside]
Efficacy with 1.25% of indigo-plant extract ([1]; content 5.0% together with 1.25% indigo-plant extract): +++
Efficacy without indigo-plant extract ([1]; content 5.0%): +

O=C(O)/C=C/c1ccc(O)c(O)c1 [Caffeic acid, caffeic acid]
MIC (A. actinomycetemcomitans [2]; [7]): 400 µg/mL (≈ 2220 µM)
MIC (A. actinomycetemcomitans [2]; [8]): 200 µg/mL (≈ 1110 µM)
MIC (P. intermedia; strain JMC7365): 400 µg/mL (≈ 2220 µM)
MIC (S. mutans; [9]): 200 µg/mL (≈ 1110 µM)
MIC (S. mutans; [10]): 1600 µg/mL (≈ 8880 µM)
MIC (S. mutans; [11]): 400 µg/mL (≈ 2220 µM)
MIC (S. mutans; [12]): 200 µg/mL (≈ 1110 µM)
MIC (S. mutans; [13]): 400 µg/mL (≈ 2220 µM)
MIC (S. mutans; [14]): 800 µg/mL (≈ 4440 µM)
MIC (C. rectus; strain JMC6301): 100 µg/mL (≈ 555 µM)
Antimicrobial activity (in words) [3]: no antimicrobial activity
MIC (S. sobrinus; strain 6715): 800 µg/mL (≈ 4440 µM)
MIC (A. actinomycetemcomitans [4]; [15]): 400 µg/mL (≈ 2220 µM)
MIC (A. actinomycetemcomitans [4]; [16]): 400 µg/mL (≈ 2220 µM)
MIC (A. actinomycetemcomitans [4]; [17]): 400 µg/mL (≈ 2220 µM)

O=c1oc2c(O)c(O)cc3c(=O)oc4c(O)c(O)cc1c4c23 [Ellagic acid]
Efficacy with 1.25% of indigo-plant extract [1, 18]: ++
Efficacy without indigo-plant extract ([1]; content 0.5%): ±

O=C(O)c1cc(O)c(O)c(O)c1 [Gallic acid, gallic acid]
MIC (A. actinomycetemcomitans [2]; [7]): 800 µg/mL (≈ 4700 µM)
MIC (A. actinomycetemcomitans [2]; [8]): 800 µg/mL (≈ 4700 µM)
MIC (P. intermedia; strain JMC7365): 400 µg/mL (≈ 2350 µM)
MIC (S. mutans; [9]): 200 µg/mL (≈ 1180 µM)
MIC (S. mutans; [10]): 1600 µg/mL (≈ 9410 µM)
MIC (S. mutans; [11]): 200 µg/mL (≈ 1180 µM)
MIC (S. mutans; [12]): 1600 µg/mL (≈ 9410 µM)
MIC (S. mutans; [13]): 400 µg/mL (≈ 2350 µM)
MIC (S. mutans; [14]): 400 µg/mL (≈ 2350 µM)
MIC (C. rectus; strain JMC6301): 400 µg/mL (≈ 2350 µM)
MIC (S. sobrinus; strain 6715): 800 µg/mL (≈ 4700 µM)
MIC (A. actinomycetemcomitans [4]; [15]): 400 µg/mL (≈ 2350 µM)
MIC (A. actinomycetemcomitans [4]; [16]): 400 µg/mL (≈ 2350 µM)
MIC (A. actinomycetemcomitans [4]; [17]): 400 µg/mL (≈ 2350 µM)

CCCCC/C=C\C/C=C\CCCCCCCC(=O)O [Linoleic acid]
Efficacy with 1.25% of indigo-plant extract [1, 18]: ++
Efficacy without indigo-plant extract ([1]; content 0.5%): ±

COc1ccc(C(=O)[O-])c(O)c1.[K+] [Potassium 4-methoxysalicylate]
Efficacy with 1.25% of indigo-plant extract [1, 19]: +++
Efficacy without indigo-plant extract ([1]; content 1.0%): +

O=C1O[C@H]([C@@H](O)CO)C([O-])=C1O.[Na+] [Sodium L-ascorbate]
Efficacy with 1.25% of indigo-plant extract [1, 6]: +++
Efficacy without indigo-plant extract ([1]; content 3.0%): +

COc1cc(CCC(=O)CC(=O)CCc2ccc(O)c(OC)c2)ccc1O [Tetrahydrocurcumin]
Efficacy with 1.25% of indigo-plant extract [1, 18]: ++
Efficacy without indigo-plant extract ([1]; content 0.5%): ±

NC[C@H]1CC[C@H](C(=O)O)CC1 [Tranexamic acid]
Efficacy with 1.25% of indigo-plant extract [1, 19]: ++
Efficacy without indigo-plant extract ([1]; content 1.0%): ±

O=c1cc(CO)occ1O [koji acid]
Efficacy (suppression of blackening of cells) ([5]; medium containing 2.5 mM, cultured 72 hours): +
Efficacy with 1.25% of indigo-plant extract [1, 19]: +++
Efficacy without indigo-plant extract ([1]; content 1.0%): +

O=C1c2ccccc2-n2c1nc1ccccc1c2=O [tryptanthrin]
MIC (A. actinomycetemcomitans [2]; read-out: Minimum Inhibitory Concentration (MIC), strain JMC2434): 25 µg/mL (≈ 101 µM)
MIC (A. actinomycetemcomitans [2]; read-out: Minimum Inhibitory Concentration (MIC), strain JMC8525): 6.25 µg/mL (≈ 25.2 µM)
MIC (A. actinomycetemcomitans [2]; read-out: Minimum Inhibitory Concentration (MIC), strain JMC8577): 25 µg/mL (≈ 101 µM)
MIC (P. intermedia): 6.25 µg/mL (≈ 25.2 µM)
MIC (S. mutans; read-out: Minimum Inhibitory Concentration (MIC), strain B-13D): 6.25 µg/mL (≈ 25.2 µM)
MIC (S. mutans; read-out: Minimum Inhibitory Concentration (MIC), strain Ingbritt): 25 µg/mL (≈ 101 µM)
MIC (S. mutans; read-out: Minimum Inhibitory Concentration (MIC), strain OMZ-61): 6.25 µg/mL (≈ 25.2 µM)
MIC (S. mutans; read-out: Minimum Inhibitory Concentration (MIC), strain OMZ-65): 12.5 µg/mL (≈ 50.4 µM)
MIC (S. mutans; read-out: Minimum Inhibitory Concentration (MIC), strain OMZ-175): 6.25 µg/mL (≈ 25.2 µM)
MIC (S. mutans; read-out: Minimum Inhibitory Concentration (MIC), strain OMZ-176): 12.5 µg/mL (≈ 50.4 µM)
MIC (C. rectus): 25 µg/mL (≈ 101 µM)
Cytotoxicity (B16 melanoma cells): no cytotoxity to B16 melanoma cells was observed
MIC (S. sobrinus): 25 µg/mL (≈ 101 µM)
Melanin production ([5]; 0.5 μg/ml or more used instead of the indigo-plant extract): melanin production was suppressed although the effect was lower than the one of indigo-plant extract
MIC (A. actinomycetemcomitans [4]; read-out: Minimum Inhibitory Concentration (MIC), strain JMC12257): 12.5 µg/mL (≈ 50.4 µM)
MIC (A. actinomycetemcomitans [4]; read-out: Minimum Inhibitory Concentration (MIC), strain JMC33277): 12.5 µg/mL (≈ 50.4 µM)
